Data from patent US4476299A, “Cyclic polyamino containing compounds having therapeutic effect and the preparation thereof” (priority 1981, dated 1984).
Entries after “also recorded” stand apart in the source; their conditions may differ. Like-named read-outs stand apart in the source and are kept apart here.

How the values were obtained:
L-1210 cells = experiment: Antineoplastic action against implanted L-1210 tumor, CDF1 mice, i.p.-i.p. (T/C %); format: in vivo; conditions: Table 7, L1210 (i.p.-i.p.)
Method: (§1) In this animal test, the antineoplastic action against the implanted tumor was examined, in lower animals in vivo, in repsect to the compounds according to the present invention, by using CDF1 mice.
(§2) To the peritoneal cavity of each group of mice consisting of six CDF1 mice per group, 10^6 /0.1 ml of P-388 cells or 10^5 /0.1 ml of L-1210 cells were implanted. […] While to the control groups of CDF1 mice, P-388 and L-1210 cells were implanted in the same manner and they were bred without administration of the compounds. […]

MM2 = experiment: Antineoplastic action against MM2 tumor, i.p.-i.p. (T/C %); format: in vivo, mice; conditions: for T/C (%) / 60< (mice, fraction of group): Table 7, MM2 (i.p.-i.p.); for effective against MM2: in words
Text: as §1
(§3) As the screening test for confirming antineoplasticity of certain compound, it is known in the art that there are two kinds of tests, one being "in vitro" test wherein carcinoma cells in propagation in a test tube are used, the other being "in vivo" test wherein lower animals implanted with carcinoma cells are used. In Japan. the "in vivo" test is usually carried out by using Ehrlich tumor, L-1210 cells, sarcoma 180 cells, Yoshida sarcoma or ascites-liver tumor as ascitic tumor and immobilized carcinoma mentioned above as fixed carcinoma. Recently, a new method for confirming the antineoplasticity has been developed, in which lymphocytic leukemia cells P-388 are used. It is known that P-388 has more strong sensitivity than L-1210. As fixed carcinoma, there may be mentioned, for example Lewis lung cancer B-16 melanoma, MM2, MOPC 104E, Colon 26, MH 134, C-1498 and the like.
(§4) The new compounds of the present invention were confirmed to be effective to the P-388 cells in the light of the screening test's results hereinbefore described.

B-16 melanoma = experiment: Antineoplastic action against B-16 melanoma, i.p.-i.p. (T/C %); format: in vivo, mice; conditions: for T/C (%): Table 7, B16 (i.p.-i.p.); for effective against B-16 melanoma: in words
Text: as §1, §3, §4

P-388 cells = experiment: Antineoplastic action against implanted P-388 tumor, CDF1 mice, i.p.-i.p. (T/C %); format: in vivo; conditions: for T/C (%): Table 7, P388 (i.p.-i.p.)
Method: as §1, §2

CD-1 (IRC) mice = experiment: Neuropharmacological multidimensional observation (modified Arwin method and Smith method) in mice; format: in vivo, 4-weeks CD-1 (IRC) mice; conditions: i.p., 1 to 20 mg/kg, observed every 30 minutes for 180 minutes
Method: In this test, other pharmacological effects which may be obtained by these compounds were investigated.
Each compound of the invention was intraperitoneally administered to 4-weeks CD-1 (IRC) mice (Nippon Charles Liver K.K.) in the dose of 1 to 20 mg/kg with using mice groups consisting of three mice per group. […] The observation was carried out according to the modified Arwin method and Smith method, i.e., neuropharmacological multidimentional observation method.
Making a comparison between the symptom observed and the pattern of the pharmacological action due to the known medicines, it has been discovered that each compound of the invention has the following pharmacological effect.

[1] = Toxicity test: lethal dose in mice (Litchfield-Wilcoxon); parameters: species or system male 4-weeks CD-1 (ICR) mice; conditions: mouse, in vivo, 7 days, read-out: LD50 and 95% Confidence Limit
Method: With respect to the compounds of this invention, the lethal dose was determined as follows.
By using male 4-weeks CD-1 (ICR) mice consisting of 5 to 10 mice per group, the desired amount of each compound of this invention was suspended in 0.5% CMC solution and the resultant suspension was administered to each mouse intraperitoneally or intravenously. Observing the life or death as well as the general symptome during 7 days after the administration of the compounds, the value of LD50 for each compounds was estimated from the lethal population observed on the basis of the Litchfield-Wilcoxon method.

[2] = Mus musculus, P388, ip, read-out: T/C %, (Treatment/Control %)
[3] = Mus musculus, ip, Table 6, P388, dose 10 mg/kg, i.p., read-out: T/C %, (Treatment/Control %)

SMILES | T/C (%) (L-1210 cells; 0.5 mg/kg) | T/C (%) (L-1210 cells; 2 mg/kg) | T/C (%) (MM2; 0.5 mg/kg) | 60< (mice, fraction of group) (MM2; 2 mg/kg) | T/C (%) (MM2; 2 mg/kg) | effective against MM2 (MM2) | T/C (%) (B-16 melanoma; 0.5 mg/kg) | T/C (%) (B-16 melanoma; 2 mg/kg) | T/C (%) (B-16 melanoma; 4 mg/kg) | effective against B-16 melanoma (B-16 melanoma) | response vs control in vivo at 0.05 mg/kg (P-388 cells; [2]) [%] | response vs control in vivo at 0.5 mg/kg (P-388 cells; [2]) [%] | response vs control in vivo at 2 mg/kg (P-388 cells; [2]) [%] | response vs control in vivo at 4 mg/kg (P-388 cells; [2]) [%] | T/C (%) (P-388 cells; 0.05 mg/kg) | T/C (%) (P-388 cells; 0.5 mg/kg) | T/C (%) (P-388 cells; 2 mg/kg) | Pharmacological effect estimated (CD-1 (IRC) mice) | LD50 at 168 h ([1]; intravenous) [mg/kg] | LD50 at 168 h ([1]; ip, intraperitoneal) [mg/kg] | further results
CCCCCCOc1ccc2cc1Oc1ccc(cc1)CC1C(=O)N(C)C(C2)C(=O)NC(C)C(=O)NC(C)C(=O)N(C)C(Cc2ccc(OC)cc2)C(=O)NC(C)C(=O)N1C (centres unmarked) [Ex. 2, n-hexylether of the compound TPC-A] | 115.6 | 126.6 | 110.3 | 3/6 | 129.3 | effective | 130.5 | 158.2 | 136.2 | effective against B-16 melanoma | 110 | 137 | 154 | 173 | 130.4 | 143.5 | 150.0 | – | – | – | T/C (%) (L-1210 cells; 4 mg/kg): 130.9%; 60< (mice, fraction of group) (MM2; 4 mg/kg): 1/7; T/C (%) (MM2; 4 mg/kg): 161.8%; T/C (%) (P-388 cells; 5 mg/kg): 176.1%
CCCCCC(=O)Oc1ccc2cc1Oc1ccc(cc1)CC1C(=O)N(C)C(C2)C(=O)NC(C)C(=O)NC(C)C(=O)N(C)C(Cc2ccc(OC)cc2)C(=O)NC(C)C(=O)N1C (centres unmarked) [Ex. 21, caproate of TPC-A] | 115.6 | 126.6 | 112.1 | 2/6 | 127.3 | – | 143.5 | 152.0 | – | – | 134 | 143 | 152 | – | – | – | 152.2 | – | – | – | T/C (%) (L-1210 cells; 10 mg/kg): 67.3%; T/C (%) (MM2; 10 mg/kg): 93.9%; T/C (%) (B-16 melanoma; 5 mg/kg): 165.5%; response vs control in vivo at 10 mg/kg (P-388 cells; [2]): 197%; T/C (%) (P-388 cells; 0.01 mg/kg): 133.7%; T/C (%) (P-388 cells; 0.1 mg/kg): 135.9%
COc1ccc(CC2C(=O)NC(C)C(=O)N(C)C3Cc4ccc(cc4)Oc4cc(ccc4OC(C)=O)CC(C(=O)NC(C)C(=O)NC(C)C(=O)N2C)N(C)C3=O)cc1 (centres unmarked) [Ex. 22, Acetic acid ester of TPC-A] | 110.0 | 114.4 | 102.5 | – | 109.2 | effective | 116.9 | 128.5 | 147.8 | effective against B-16 melanoma | – | – | – | – | 133.3 | 155.6 | 168.9 | emetic action; also recorded: psychotropic action; also recorded: antidiuretic action | 20 | 18.4 | T/C (%) (L-1210 cells; 0.05 mg/kg): 100.9%; T/C (%) (L-1210 cells; 5 mg/kg): 120.0%; T/C (%) (L-1210 cells; 10 mg/kg): 128.9%; T/C (%) (MM2; 5 mg/kg): 117.8%; T/C (%) (MM2; 10 mg/kg): 120.9%; T/C (%) (B-16 melanoma; 8 mg/kg): 141.1%; response vs control in vivo at 0.05 mg/kg (P-388 cells; Mus musculus, ip, Table 6, P388, dose 0.05 mg/kg, i.p., read-out: T/C %, (Treatment/Control %)): 133%; response vs control in vivo at 0.5 mg/kg (P-388 cells; Mus musculus, ip, Table 6, P388, dose 0.5 mg/kg, i.p., read-out: T/C %, (Treatment/Control %)): 156%; response vs control in vivo at 2 mg/kg (P-388 cells; Mus musculus, ip, Table 6, P388, dose 2 mg/kg, i.p., read-out: T/C %, (Treatment/Control %)): 169%; response vs control in vivo at 10 mg/kg (P-388 cells; [3]): 195%; T/C (%) (P-388 cells; 5 mg/kg): 175.8%; T/C (%) (P-388 cells; 10 mg/kg): 194.7%
CCCCCCCCCC(=O)Oc1ccc2cc1Oc1ccc(cc1)CC1C(=O)N(C)C(C2)C(=O)NC(C)C(=O)NC(C)C(=O)N(C)C(Cc2ccc(OC)cc2)C(=O)NC(C)C(=O)N1C (centres unmarked) [Ex. 30] | – | – | – | – | – | effective | – | – | – | effective against B-16 melanoma | 122 | 146 | 152 | – | – | – | – | – | – | – | response vs control in vivo at 10 mg/kg (P-388 cells; [2]): 151%
COc1ccc(CC2C(=O)NC(C)C(=O)N(C)C3Cc4ccc(cc4)Oc4cc(ccc4OC)CC(C(=O)NC(C)C(=O)NC(C)C(=O)N2C)N(C)C3=O)cc1 (centres unmarked) [Methylether of TPC-A, methylether of the compound TPC-A] | 118.6 | 129.3 | – | – | 118.4 | – | – | 139.1 | 143.0 | – | – | 157 | 164 | 174 | – | 156.7 | 164.2 | emetic action; also recorded: anorexigenic action | 16.5 | 10 | T/C (%) (L-1210 cells; 0.01 mg/kg): 105.6%; T/C (%) (L-1210 cells; 1 mg/kg): 120.7%; T/C (%) (L-1210 cells; 5 mg/kg): 137.3%; T/C (%) (MM2; 0.2 mg/kg): 103.1%; T/C (%) (MM2; 1 mg/kg): 103.1%; T/C (%) (MM2; 5 mg/kg): 90.8%; T/C (%) (B-16 melanoma; 1 mg/kg): 135.3%; T/C (%) (B-16 melanoma; printed "(p. 25 mg/kg)"): 133.8%; response vs control in vivo at 0.01 mg/kg (P-388 cells; [2]): 130%; T/C (%) (P-388 cells; 0.01 mg/kg): 130.1%; T/C (%) (P-388 cells; 1 mg/kg): 159.9%; T/C (%) (P-388 cells; 4 mg/kg): 173.6%
COc1ccc(CC2C(=O)NC(C)C(=O)N(C)C3Cc4ccc(cc4)Oc4cc(ccc4O)CC(C(=O)NC(C)C(=O)NC(C)C(=O)N2C)N(C)C3=O)cc1 (centres unmarked) [TPC-A] | – | – | – | – | – | – | – | – | – | – | – | – | – | – | – | – | – | emetic action; also recorded: anorexigenic action; also recorded: psychotropic action; also recorded: papaverine action | 34 | 16 | response vs control in vivo at 10 mg/kg (P-388 cells; [3]): 187%; antineoplastic effect / effective to P-388 cells (P-388 cells; in words): has antineoplastic effect by itself
